Laboratory results reported in the NIST ThermoML archive (doi:10.1016/j.fluid.2017.01.019).
Numbers after ± are expanded uncertainties.

Experiments:
[1] = 101.33 kPa, Liquid; for viscosity: Falling or rolling sphere viscometry; for speed of sound: Sing-around technique in a fixed-path interferometer; for mass density: Vibrating tube method
[2] = xn = mol fraction of the nth substance listed; conditions: 100 kPa, Liquid, x2 = 0; for mass density: Vibrating tube method; for viscosity: Falling or rolling sphere viscometry; for speed of sound: Frequency=3 MHz, Sing-around technique in a fixed-path interferometer

CCOS(=O)(=O)[O-].CCn1cc[n+](C)c1 [1-ethyl-3-methylimidazolium ethyl sulfate]
[1]
Conditions	mass density [kg/m3]	speed of sound [m/s]	viscosity [mPa·s]
298.15 K	1236.33 ± 8.3	1682.3 ± 5.1	96.21 ± 3.2
303.15 K	1232.93 ± 8.3	1670 ± 5.1	75.89 ± 2.2
308.15 K	1229.57 ± 8.2	1657.9 ± 5.1	60.73 ± 1.6
313.15 K	1226.21 ± 8.2	1645.9 ± 5.1	49.38 ± 1.3
318.15 K	1222.87 ± 8.1	1634.1 ± 5.1	40.93 ± 1.1
323.15 K	1219.54 ± 8.1	1622.3 ± 5.1	33.82 ± 0.89

CCCCO [butan-1-ol]
[1]
Conditions	mass density [kg/m3]	speed of sound [m/s]	viscosity [mPa·s]
298.15 K	806.27 ± 0.24	1239.8 ± 1.3	2.61 ± 0.15
303.15 K	802.42 ± 0.24	1223.2 ± 1.3	2.31 ± 0.15
308.15 K	798.536 ± 0.24	1206.3 ± 1.3	2.07 ± 0.15
313.15 K	794.617 ± 0.24	1189.7 ± 1.2	1.85 ± 0.15
318.15 K	790.655 ± 0.24	1173.1 ± 1.2	1.66 ± 0.15
323.15 K	786.645 ± 0.24	1156.5 ± 1.2	1.5 ± 0.15

CCCCO [butan-1-ol] + CCOS(=O)(=O)[O-].CCn1cc[n+](C)c1
[2]
Conditions	mass density [kg/m3]	speed of sound [m/s]	viscosity [mPa·s]
289.15 K	806.27 ± 0.23	–	–
298.15 K	–	1241.1 ± 1.3	2.61 ± 0.15
303.15 K	802.42 ± 0.24	1224.3 ± 1.3	2.31 ± 0.15
308.15 K	798.536 ± 0.24	1207.5 ± 1.3	2.07 ± 0.15
313.15 K	794.617 ± 0.24	1190.9 ± 1.3	1.85 ± 0.15
318.15 K	790.655 ± 0.24	1174.2 ± 1.2	1.66 ± 0.15
323.15 K	786.645 ± 0.24	1157.6 ± 1.2	1.5 ± 0.15

CO [methanol]
[1]
Conditions	mass density [kg/m3]	speed of sound [m/s]	viscosity [mPa·s]
298.15 K	786.884 ± 0.24	1103.3 ± 1.2	0.55 ± 0.15
303.15 K	782.158 ± 0.24	1086.9 ± 1.2	0.51 ± 0.15
308.15 K	777.414 ± 0.24	1070.6 ± 1.2	0.48 ± 0.15
313.15 K	772.64 ± 0.24	1054.5 ± 1.2	0.45 ± 0.15
318.15 K	767.844 ± 0.24	1038.5 ± 1.2	0.43 ± 0.15
323.15 K	763.028 ± 0.24	1022.5 ± 1.2	0.41 ± 0.15

CO [methanol] + CCCCO
[2]
Conditions	mass density [kg/m3]	speed of sound [m/s]	viscosity [mPa·s]
293.15 K	–	–	0.55 ± 0.15
298.15 K	786.884 ± 0.24	1103.3 ± 1.2	–
303.15 K	782.158 ± 0.24	1086.9 ± 1.2	0.51 ± 0.15
308.15 K	777.414 ± 0.24	1070.6 ± 1.2	0.48 ± 0.15
313.15 K	772.64 ± 0.24	1054.5 ± 1.2	0.45 ± 0.15
318.15 K	767.844 ± 0.24	1038.5 ± 1.2	0.43 ± 0.15
323.15 K	763.028 ± 0.24	1022.5 ± 1.2	0.41 ± 0.15

CO [methanol] + CCOS(=O)(=O)[O-].CCn1cc[n+](C)c1
[2]
Conditions	mass density [kg/m3]	speed of sound [m/s]	viscosity [mPa·s]
298.15 K	786.884 ± 0.24	–	0.55 ± 0.15
303.15 K	782.158 ± 0.24	1086.9 ± 1.2	0.51 ± 0.15
308.15 K	777.414 ± 0.24	1070.6 ± 1.2	0.48 ± 0.15
313.15 K	772.64 ± 0.24	1054.5 ± 1.2	0.45 ± 0.15
318.15 K	767.844 ± 0.24	1038.5 ± 1.2	0.43 ± 0.15
323.15 K	763.028 ± 0.24	1022.5 ± 1.2	0.41 ± 0.15
